pIC50: −log10 of the molar value.
Key:
Histone deacetylase = experiment: Inhibition of HDAC in human HeLa cell nuclear extract using Boc-Lys (acetyl)-AMC as substrate preincubated for 5 mins followed by substrate addition measured after 30 mins by fluorescence assay; format: protein assay
MOLT-4 = experiment: Antiproliferative activity against human MOLT4 cells after 48 hrs by MTT assay; format: functional, cell-based; settings: MOLT-4, 48 h
Jurkat = experiment: Antiproliferative activity against human Jurkat cells after 48 hrs by MTT assay; format: functional, cell-based
U-937 = experiment: Antiproliferative activity against human U937 cells after 48 hrs by MTT assay; format: functional, cell-based; settings: U-937, 48 h
[1] = Antiproliferative activity against human SK-N-BE(2) cells after 48 hrs by MTT assay; format: functional, cell-based; settings: SKNBE2, 48 h
Histone deacetylase 1 = Histone deacetylase 1 (Homo sapiens, UniProt Q13547); experiment: Inhibition of HDAC1 (unknown origin) using Ac-Leu-GlyLys(Ac)-AMC as substrate preincubated for 5 mins followed by substrate addition measured after 30 mins by fluorescence assay
Chain of Histone deacetylase 1 (Q13547 whole entry): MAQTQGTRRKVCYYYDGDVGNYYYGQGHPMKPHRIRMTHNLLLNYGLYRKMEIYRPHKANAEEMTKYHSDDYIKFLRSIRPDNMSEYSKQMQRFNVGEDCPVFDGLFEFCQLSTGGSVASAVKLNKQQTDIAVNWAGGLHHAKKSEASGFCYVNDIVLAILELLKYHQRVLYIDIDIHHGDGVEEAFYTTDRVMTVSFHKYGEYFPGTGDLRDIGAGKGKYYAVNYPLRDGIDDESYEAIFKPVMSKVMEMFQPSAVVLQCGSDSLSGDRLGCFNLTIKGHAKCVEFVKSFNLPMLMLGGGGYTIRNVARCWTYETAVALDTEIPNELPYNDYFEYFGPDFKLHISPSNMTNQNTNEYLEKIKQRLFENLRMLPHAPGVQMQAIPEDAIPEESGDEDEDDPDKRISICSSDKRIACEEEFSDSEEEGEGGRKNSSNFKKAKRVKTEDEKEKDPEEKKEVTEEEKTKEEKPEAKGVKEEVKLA

[2] = molecular target: T1, Protein deacetylase HDAC6 (Homo sapiens, UniProt Q9UBN7); experiment: Inhibition of HDAC6 (unknown origin) using Ac-Leu-GlyLys(Ac)-AMC as substrate preincubated for 5 mins followed by substrate addition measured after 30 mins by fluorescence assay
T1 sequence (Q9UBN7 whole entry): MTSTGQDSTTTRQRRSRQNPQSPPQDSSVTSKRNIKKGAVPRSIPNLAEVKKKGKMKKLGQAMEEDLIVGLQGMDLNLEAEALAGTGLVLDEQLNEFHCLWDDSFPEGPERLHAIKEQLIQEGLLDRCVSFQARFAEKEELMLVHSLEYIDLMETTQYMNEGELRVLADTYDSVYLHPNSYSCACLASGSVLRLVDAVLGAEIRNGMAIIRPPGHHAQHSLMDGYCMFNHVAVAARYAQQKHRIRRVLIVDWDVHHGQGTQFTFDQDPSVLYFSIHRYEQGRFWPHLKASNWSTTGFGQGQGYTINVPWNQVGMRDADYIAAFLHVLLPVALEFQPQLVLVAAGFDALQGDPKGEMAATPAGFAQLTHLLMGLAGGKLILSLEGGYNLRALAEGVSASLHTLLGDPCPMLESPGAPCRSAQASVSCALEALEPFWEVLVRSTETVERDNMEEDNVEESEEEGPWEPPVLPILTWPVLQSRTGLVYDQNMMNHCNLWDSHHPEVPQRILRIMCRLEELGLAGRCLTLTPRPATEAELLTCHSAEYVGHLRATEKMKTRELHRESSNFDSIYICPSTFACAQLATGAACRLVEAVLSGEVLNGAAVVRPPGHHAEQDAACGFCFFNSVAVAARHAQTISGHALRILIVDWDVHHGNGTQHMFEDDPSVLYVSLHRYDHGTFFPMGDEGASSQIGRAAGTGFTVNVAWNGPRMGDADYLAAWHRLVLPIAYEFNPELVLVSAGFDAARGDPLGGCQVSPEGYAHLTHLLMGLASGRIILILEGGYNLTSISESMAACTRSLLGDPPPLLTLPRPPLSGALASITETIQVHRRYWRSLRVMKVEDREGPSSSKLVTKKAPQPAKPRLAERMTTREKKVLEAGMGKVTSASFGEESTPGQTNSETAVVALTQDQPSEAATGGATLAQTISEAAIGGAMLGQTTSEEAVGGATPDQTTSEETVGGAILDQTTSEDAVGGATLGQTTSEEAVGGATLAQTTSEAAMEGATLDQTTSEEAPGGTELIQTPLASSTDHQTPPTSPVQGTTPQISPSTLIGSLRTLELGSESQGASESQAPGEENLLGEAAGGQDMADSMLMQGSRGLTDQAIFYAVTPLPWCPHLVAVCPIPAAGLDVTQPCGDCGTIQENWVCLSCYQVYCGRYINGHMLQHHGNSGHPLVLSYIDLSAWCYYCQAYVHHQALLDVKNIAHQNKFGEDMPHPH

Histone deacetylase 8 = molecular target: T2, Histone deacetylase 8 (Homo sapiens, UniProt Q9BY41); experiment: Inhibition of HDAC8 (unknown origin) using Ac-Leu-GlyLys(Ac)-AMC as substrate preincubated for 5 mins followed by substrate addition measured after 30 mins by fluorescence assay
T2 sequence (Q9BY41 whole entry): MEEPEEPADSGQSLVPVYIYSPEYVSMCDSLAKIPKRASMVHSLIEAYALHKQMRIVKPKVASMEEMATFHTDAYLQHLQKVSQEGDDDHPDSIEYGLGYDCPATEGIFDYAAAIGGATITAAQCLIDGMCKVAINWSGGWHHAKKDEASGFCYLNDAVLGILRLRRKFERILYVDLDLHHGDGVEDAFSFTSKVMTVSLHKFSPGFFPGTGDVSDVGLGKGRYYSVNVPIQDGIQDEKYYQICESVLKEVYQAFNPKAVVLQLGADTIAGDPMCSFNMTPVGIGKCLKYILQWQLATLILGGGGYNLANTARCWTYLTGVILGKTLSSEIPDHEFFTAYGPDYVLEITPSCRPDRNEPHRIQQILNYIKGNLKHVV

Histone deacetylase 11 = molecular target: T3, Histone deacetylase 11 (Homo sapiens, UniProt Q96DB2); experiment: Inhibition of HDAC11 (unknown origin) using Ac-Leu-GlyLys(Ac)-AMC as substrate preincubated for 5 mins followed by substrate addition measured after 30 mins by fluorescence assay
T3 sequence (Q96DB2 whole entry): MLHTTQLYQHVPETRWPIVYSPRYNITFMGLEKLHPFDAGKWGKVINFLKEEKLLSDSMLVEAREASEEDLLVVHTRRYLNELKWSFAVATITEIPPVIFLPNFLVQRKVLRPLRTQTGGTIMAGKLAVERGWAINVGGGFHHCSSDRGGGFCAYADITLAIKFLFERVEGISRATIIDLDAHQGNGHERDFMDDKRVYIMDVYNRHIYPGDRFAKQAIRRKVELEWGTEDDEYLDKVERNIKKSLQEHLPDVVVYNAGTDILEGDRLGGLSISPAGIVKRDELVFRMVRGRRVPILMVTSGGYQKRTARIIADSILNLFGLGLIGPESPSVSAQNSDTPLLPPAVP

HEL = experiment: cells; settings: Homo sapiens, 48 h
Description: Antiproliferative activity against human HEL cells after 48 hrs by MTT assay

HeLa = experiment: cells; settings: Homo sapiens, 48 h

With O=C(/C=C/c1ccc(C(=O)NO)cc1)N[C@@H](Cc1c[nH]c2ccccc12)C(=O)Nc1ccccc1Cl as the molecule, how does the IC50 (Histone deacetylase) read?
Its IC50 is 57.1 nM.

With O=C(/C=C/c1ccc(C(=O)NO)cc1)N[C@@H](Cc1c[nH]c2ccccc12)C(=O)Nc1ccc(I)cc1 as the molecule, how does the IC50 (Histone deacetylase) read?
The IC50 was 29.5 nM.

With O=C(/C=C/c1ccc(C(=O)NO)cc1)N[C@@H](Cc1c[nH]c2ccccc12)C(=O)Nc1cccc(Cl)c1 as the molecule, how does the IC50 (Histone deacetylase) read?
The IC50 was 8.1 nM.

And the pIC50 (MOLT-4)?
The pIC50 was 6.17.

What about the pIC50 (Jurkat) of the same molecule?
The pIC50 was 6.40.

And the pIC50 (U-937)?
Its pIC50 is 6.18.

And the pIC50 [1]?
Its pIC50 is 6.22.

What about the pIC50 (Histone deacetylase 1) of the same molecule?
Its pIC50 is 7.64.

What about the pIC50 [2] of the same molecule?
Its pIC50 is 7.29.

And the pIC50 (Histone deacetylase 8)?
Its pIC50 is 6.88.

And the pIC50 (Histone deacetylase 11)?
Its pIC50 is 7.12.

What about the pIC50 (HEL) of the same molecule?
Its pIC50 is 6.31.

And the pIC50 (HeLa)?
Its pIC50 is 5.78.

Which IC50 (Histone deacetylase) does the source give for CCCCNC(=O)[C@H](Cc1c[nH]c2ccccc12)NC(=O)/C=C/c1ccc(C(=O)NO)cc1 here?
Its IC50 is 84.8 nM.

Which IC50 (Histone deacetylase) does the source give for Cc1ccc(NC(=O)[C@H](Cc2c[nH]c3ccccc23)NC(=O)/C=C/c2ccc(C(=O)NO)cc2)cc1 here?
The IC50 was 22.5 nM.

Which IC50 (Histone deacetylase) does the source give for CC(C)CNC(=O)[C@H](Cc1c[nH]c2ccccc12)NC(=O)/C=C/c1ccc(C(=O)NO)cc1 here?
The IC50 was 311.9 nM.

With O=C(/C=C/c1ccc(C(=O)NO)cc1)N[C@@H](Cc1c[nH]c2ccccc12)C(=O)Nc1cccc2ccccc12 as the molecule, how does the IC50 (Histone deacetylase) read?
The IC50 was 59.5 nM.

For O=C(/C=C/c1ccc(C(=O)NO)cc1)N[C@@H](Cc1c[nH]c2ccccc12)C(=O)NC1CC1, which IC50 (Histone deacetylase) is on record?
Its IC50 is 268.9 nM.

With O=C(/C=C/c1ccc(C(=O)NO)cc1)N[C@@H](Cc1c[nH]c2ccccc12)C(=O)NCc1ccccc1 as the molecule, how does the IC50 (Histone deacetylase) read?
Its IC50 is 37.3 nM.

For O=C(/C=C/c1ccc(C(=O)NO)cc1)N[C@@H](Cc1c[nH]c2ccccc12)C(=O)NCCc1ccccc1, which IC50 (Histone deacetylase) is on record?
Its IC50 is 21.8 nM.

For O=C(/C=C/c1ccc(C(=O)NO)cc1)N[C@@H](Cc1c[nH]c2ccccc12)C(=O)Nc1ccncc1, which IC50 (Histone deacetylase) is on record?
The IC50 was 36.9 nM.

For CC(C)(C)NC(=O)[C@H](Cc1c[nH]c2ccccc12)NC(=O)/C=C/c1ccc(C(=O)NO)cc1, which IC50 (Histone deacetylase) is on record?
Its IC50 is 165.5 nM.

With COc1ccc(NC(=O)[C@H](Cc2c[nH]c3ccccc23)NC(=O)/C=C/c2ccc(C(=O)NO)cc2)cc1 as the molecule, how does the IC50 (Histone deacetylase) read?
Its IC50 is 35.8 nM.

With O=C(/C=C/c1ccc(C(=O)NO)cc1)N[C@@H](Cc1c[nH]c2ccccc12)C(=O)NC1CCCC1 as the molecule, how does the IC50 (Histone deacetylase) read?
The IC50 was 249.1 nM.

With O=C(/C=C/c1ccc(C(=O)NO)cc1)N[C@@H](Cc1c[nH]c2ccccc12)C(=O)Nc1ccccc1 as the molecule, how does the IC50 (Histone deacetylase) read?
Its IC50 is 7.6 nM.

With O=C(/C=C/c1ccc(C(=O)NO)cc1)N[C@@H](Cc1c[nH]c2ccccc12)C(=O)Nc1ccc(F)cc1 as the molecule, how does the IC50 (Histone deacetylase) read?
Its IC50 is 2 nM.

And the pIC50 (MOLT-4)?
The pIC50 was 6.08.

What about the pIC50 (Jurkat) of the same molecule?
Its pIC50 is 6.01.

What about the pIC50 (U-937) of the same molecule?
Its pIC50 is 6.20.

What about the pIC50 [1] of the same molecule?
The pIC50 was 5.88.

And the pIC50 (HEL)?
The pIC50 was 6.00.

What about the pIC50 (HeLa) of the same molecule?
Its pIC50 is 5.80.

For Cc1cc(C)c(NC(=O)[C@H](Cc2c[nH]c3ccccc23)NC(=O)/C=C/c2ccc(C(=O)NO)cc2)c(C)c1, which IC50 (Histone deacetylase) is on record?
Its IC50 is 22.2 nM.

What does the source list for O=C(/C=C/c1ccc(C(=O)NO)cc1)N[C@@H](Cc1c[nH]c2ccccc12)C(=O)Nc1ccc(Br)cc1?
IC50 (Histone deacetylase): 2 nM; pIC50 (MOLT-4): 6.33; pIC50 (Jurkat): 6.11; pIC50 (U-937): 6.29; pIC50 [1]: 6.21; pIC50 (Histone deacetylase 1): 7.34; pIC50 [2]: 6.90; pIC50 (Histone deacetylase 8): 6.45; pIC50 (Histone deacetylase 11): 6.75; pIC50 (HEL): 6.36; pIC50 (HeLa): 5.92

For CCNC(=O)[C@H](Cc1c[nH]c2ccccc12)NC(=O)/C=C/c1ccc(C(=O)NO)cc1, which IC50 (Histone deacetylase) is on record?
The IC50 was 112.1 nM.

With O=C(/C=C/c1ccc(C(=O)NO)cc1)N[C@@H](Cc1c[nH]c2ccccc12)C(=O)Nc1ccc(Cl)cc1 as the molecule, how does the IC50 (Histone deacetylase) read?
The IC50 was 5.7 nM.

And the pIC50 (MOLT-4)?
The pIC50 was 6.17.

And the pIC50 (Jurkat)?
The pIC50 was 5.57.

What about the pIC50 (U-937) of the same molecule?
Its pIC50 is 6.03.

What about the pIC50 [1] of the same molecule?
Its pIC50 is 5.80.

What about the pIC50 (Histone deacetylase 1) of the same molecule?
Its pIC50 is 7.26.

And the pIC50 [2]?
The pIC50 was 7.90.

What about the pIC50 (Histone deacetylase 8) of the same molecule?
Its pIC50 is 7.33.

What about the pIC50 (Histone deacetylase 11) of the same molecule?
The pIC50 was 7.80.

What about the pIC50 (HEL) of the same molecule?
The pIC50 was 5.94.

What about the pIC50 (HeLa) of the same molecule?
Its pIC50 is 5.84.

With O=C(CCCCCCC(=O)Nc1ccccc1)NO [VORINOSTAT] as the molecule, how does the pIC50 (HEL) read?
The pIC50 was 6.10.

What about the pIC50 (HeLa) of the same molecule?
Its pIC50 is 5.74.
